Experimental findings from patent US20100280268A1, “H[…] RESOLVED FL[…] TEST SYSTEM” (priority 2006, published 2010) are described below.

Ends that are not written are not given here. A value given as a limit tells only on which side of the number the result lay.

The assay deals with T1, HIV six-helix bundle of gp41 (IQN36 / C34) (Human immunodeficiency virus type 1 group M subtype B, UniProt P04578).
T1 construct: made in house; host or cells: chemical peptide synthesis, no expression host
As to the kind of experiment: HIV-FRET IQN36/C34 homogeneous time resolved fluorescence test system (6-helix bundle formation). The class given is binding, Human Immunodeficiency Virus (HIV-1). The method, then: All reagents were dissolved in 100 mM Hepes buffer pH 7.2. Test compounds were serially diluted and then added to 384-well plates. A final concentration of 10 nM S-APC and 100 nM IQN36-biotin were mixed in tubes, incubated for 30 min at room temperature and then added to well containing test compound. The compound/S-APC/IQN36-biotin mixture was incubated for another 2 hours at room temperature.
With `Cc1ccc(S(=O)(=O)Nc2ccc(Oc3ccc(NS(=O)(=O)c4ccc(C)cc4)c(-c4ccccc4)c3)cc2C(=O)O)cc1` [Compound 6, 2-(Toluene-4-sulfonylamino)-5-[6-(toluene-4-sulfonylamino)-biphenyl-3-yloxy]-benzoic acid], the 50% inhibitory concentration (IC50) came to 3.16 µM.
`CNc1cc(Oc2ccc(NS(=O)(=O)c3ccc(C)cc3)c(C(=O)O)c2)ccc1NS(=O)(=O)c1ccc(C)cc1` [Compound 13, 5-[3-Methylamino-4-(toluene-4-sulfonylamino)-phenoxy]-2-(toluene-4-sulfonylamino)-benzoic acid] displayed a concentration for half-maximal inhibition (IC50) of 2.69 µM. The IC50 values of the last two compounds are within 1.5-fold of each other.
Then `CCNc1cc(Oc2ccc(NS(=O)(=O)c3ccc(C)cc3)c(C(=O)O)c2)ccc1NS(=O)(=O)c1ccc(C)cc1` [Compound 11, 5-[3-Ethylamino-4-(toluene-4-sulfonylamino)-phenoxy]-2-(toluene-4-sulfonylamino)-benzoic acid], with 2.47 µM; and `Cc1ccc(S(=O)(=O)Nc2ccc(Oc3ccc4c(c3)CCCN4S(=O)(=O)c3ccc(C)cc3)cc2C(=O)O)cc1` [Compound 3, 2-(4-methylphenylsulfonamino)-5-[1-(toluene-4-sulfonyl)-1,2,3,4-tetrahydro-quinolin-6-yloxy]-benzoic acid], with 2.88 µM.
Then `Cc1ccc(S(=O)(=O)Nc2ccc(Oc3ccc(NS(=O)(=O)c4ccc(C)cc4)c(N(C)Cc4ccccc4)c3)cc2C(=O)O)cc1` [Compound 10, 5-[3-(Benzyl-methyl-amino)-4-(toluene-4-sulfonylamino)-phenoxy]-2-(toluene-4-sulfonylamino)-benzoic acid], with 2.64 µM; and `COC(=O)c1cc(Cc2cc(Cc3ccc(NS(=O)(=O)c4ccc(C)cc4)c(C(=O)O)c3)cc(C(=O)O)c2NS(=O)(=O)c2ccc(C)cc2)ccc1NS(=O)(=O)c1ccc(C)cc1` [Compound 1], with 3.27 µM.
`Cc1ccc(S(=O)(=O)Nc2ccc(Oc3ccc(NS(=O)(=O)c4ccc(C)cc4)c(C(=O)O)c3)cc2Cc2ccccc2)cc1` [Compound 12, 5-[3-Benzyl-4-(toluene-4-sulfonylamino)-phenoxy]-2-(toluene-4-sulfonylamino)-benzoic acid] yielded a concentration for half-maximal inhibition (IC50) of 2.09 µM. This IC50 lies about 1.6-fold lower than the previous one.
Compound `CCCCCCN(c1ccc(Oc2ccc(NS(=O)(=O)c3ccc(C)cc3)c(C(=O)O)c2)cc1)S(=O)(=O)c1ccc(C)cc1` [Compound 4, 5-{4-[Hexyl-(toluene-4-sulfonyl)-amino]-phenoxy}-2-(4-methylphenylsulfonamino)-benzoic acid] had an IC50 of 4.45 µM. Compared with the last compound, the IC50 is about 2.1-fold higher.
Turning to “NFYDPLVFPSDEFDASISQVNEKINQSLAFIRKSDELLHNVNAGK [Compound C45, reference compound]”, the IC50 was over 10 µM.
Next, `CCCCNc1cc(Oc2ccc(NS(=O)(=O)c3ccc(C)cc3)c(C(=O)O)c2)ccc1NS(=O)(=O)c1ccc(C)cc1` [Compound 9, 5-[3-Butylamino-4-(toluene-4-sulfonylamino)-phenoxy]-2-(toluene-4-sulfonylamino)-benzoic acid]: 1.81 µM; `CCCCCOc1cc(Oc2ccc(NS(=O)(=O)c3ccc(C)cc3)c(C(=O)O)c2)ccc1NS(=O)(=O)c1ccc(C)cc1` [Compound 5, 5-[3-pentyloxy-4-(toluene-4-sulfonylamino)-phenoxy]-2-(toluene-4-sulfonylamino)-benzoic acid]: 3.48 µM; `Cc1ccc(S(=O)(=O)Nc2ccc(Oc3ccc(NS(=O)(=O)c4ccc(C)cc4)c(C(=O)O)c3)cc2OCC(C)C)cc1` [Compound 7, 5-[3-Isobutoxy-4-(toluene-4-sulfonylamino)-phenoxy]-2-(toluene-4-sulfonylamino)-benzoic acid]: 3.27 µM.
In turn, `Cc1ccc(S(=O)(=O)Nc2ccc(Oc3ccc(NS(=O)(=O)c4ccc(C)cc4)c(C(=O)O)c3)cc2OCc2ccccc2)cc1` [Compound 2, 5-[3-Benzyloxy-4-(toluene-4-sulfonylamino)-phenoxy]-2-(toluene-4-sulfonylamino)-benzoic acid] had a 50% inhibitory concentration (IC50) of 2.72 µM. The IC50 values of the last two compounds are within 1.5-fold of each other.
Take `Cc1ccc(S(=O)(=O)Nc2ccc(Oc3ccc(NS(=O)(=O)c4ccc(C)cc4)c(C(=O)O)c3)cc2NCc2ccccc2)cc1` [Compound 8, 5-[3-Benzylamino-4-(toluene-4-sulfonylamino)-phenoxy]-2-(toluene-4-sulfonylamino)-benzoic acid]: it took 2.27 µM to reach half-maximal inhibition (IC50).
